From the METLIN SMRT retention time set (Domingo-Almenara et al. 2019)

Test: gradient 5% acetonitrile 3 min, to 50% in 2 min, to 85% in 15 min, held 3 min, 100 µL/min
Conditions: column: Zorbax Extend-C18 2.1 x 50 mm; eluents: water / acetonitrile, 0.1% formic acid
Method in brief: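 A Zorbax Extend-C18 column (2.1 × 50 mm, 1.8 μm) run at 100 μL/min with water and acetonitrile, both containing 0.1% formic acid, separated mixtures of ~100 pure standards. The HPLC was coupled to a quadrupole time-of-flight mass spectrometer operated in positive and negative ionization mode, with dead and dwell volumes of 40 μL and 900 μL. Each retention time was taken from a computationally picked adduct peak that was then manually inspected.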

Row | RP-LC retention time [s] | Structure (SMILES)
1 | 720 | CCCN1C(=O)c2cccnc2Sc2cc(C(=O)N3CCCC3)ccc21
2 | 607 | O=C(c1cnccn1)N1CCC(N2C(=O)C(OCC3CC3)C23CCOCC3)CC1 (stereo unspecified)
3 | 966 | O=C1CC(c2noc(CCc3ccccc3)n2)CN1c1ccc(F)cc1 (stereo unspecified)
4 | 693 | Cn1c(C(=O)N2CCCC(C(=O)NCCc3ccc(S(N)(=O)=O)cc3)C2)cc2sccc21 (stereo unspecified)
5 | 706 | Cc1cc(C(=O)Nc2nnc(-c3cccs3)o2)c(C)o1
6 | 916 | COc1ccc(OCc2nc(-c3ccc4nnn(C)c4c3)no2)cc1
7 | 660 | CCc1ccc(NC(=O)C2CCN(S(=O)(=O)c3cc(-c4noc(CC)n4)cs3)CC2)cc1
8 | 775 | O=C1[C@H]2CCCC[C@H]2C(=O)N1CCCCN1CCN(c2nsc3ccccc23)CC1
9 | 756 | Cc1noc(C)c1S(=O)(=O)N1CCC(c2nnc(-c3ccco3)o2)CC1
10 | 1240 | Cc1c(C(=O)N2CCC(C)CC2)cnn1-c1cc(-c2nc(C(C)(C)C)no2)ccn1
11 | 886 | COc1ccc(CNS(=O)(=O)c2ccc(-c3c(C)noc3C)cc2)cc1
12 | 596 | CCCOc1cc(S(=O)(=O)NCCCn2ccnc2)ccc1Cl
13 | 902 | CCCn1cc(CCNC(=O)Nc2ccc(Br)c(C)c2)c2cccnc21
14 | 620 | CN(C)CCCNC(=O)C(=O)c1c(-c2ccccc2)cc2ccccn12
15 | 660 | CCc1noc(-c2cccnc2N2CCCN(Cc3cccc(F)c3)CC2)n1
16 | 908 | CCOC(=O)C(CC)Sc1ccc(NC(=O)c2cccs2)nn1 (stereo unspecified)
17 | 768 | CC(=O)Nc1ccc(NC(=O)C2CCCN(c3ccc(=O)n(-c4ccc(C)c(Cl)c4)n3)C2)cc1 (stereo unspecified)
18 | 1180 | Cc1cccc(OCc2nc(-c3ccc4oc(C)nc4c3)no2)c1
19 | 733 | Cn1ccc2c(cc(C(=O)NCc3cccc(Br)c3)n2C)c1=O
20 | 768 | COc1ccc(OCc2noc(CNC(=O)C(C)n3nnc4ccccc4c3=O)n2)cc1 (stereo unspecified)
21 | 781 | O=C(NCC(O)c1cccc2ccccc12)NC1CCCCC1 (stereo unspecified)
22 | 887 | Cc1ccc(NC(=O)c2cnc3c(c2)c(=O)n(C)c(=O)n3-c2ccccc2)c(F)c1
23 | 879 | CCOc1ccc(-n2ccn3cc(-c4ccc(C)cc4)nc3c2=O)cc1

Row | RP-LC retention time [s] | Structure (SMILES)
24 | 808 | Cc1ccc(C2Cn3cnc(C(=O)N4CCC(C(=O)NCc5cc(F)ccc5F)CC4)c3CO2)cc1 (stereo unspecified)
25 | 577 | COC(=O)c1c(C)[nH]c(C(=O)N2CCCC(C(=O)NCc3cccnc3)C2)c1C (stereo unspecified)
26 | 863 | CCCC(=O)Nc1cccc(NC(=O)c2ccccc2Br)c1
27 | 655 | CC1CCN(C2=NCCN2C(=O)c2ccccc2Cl)CC1
28 | 855 | O=C(NC1CCCCC1)C1CCCN(C(=O)c2ccc(Cl)cc2)C1 (stereo unspecified)
29 | 828 | C[C@@H](NCCCc1cccc(C(F)(F)F)c1)c1cccc2ccccc12
30 | 743 | CC(C)c1cccc(NC(=O)Cn2cnc3nc(N4CCC(C(=O)NC5CC5)CC4)sc3c2=O)c1
31 | 577 | O=C(c1cc(C2CC2)[nH]n1)N1CCN(c2ccc(N3CCOCC3)nn2)CC1
32 | 902 | CC1CCN(C(=O)C2CCN(c3ccc4nnc(-c5ccccc5)n4n3)CC2)CC1
33 | 1080 | CCCNC(=O)c1c(O)c2cccnc2n(-c2ccc(OC)cc2)c1=O
34 | 683 | CCOC(=O)c1c(N)n(-c2ccccc2)c2nc3ccccc3nc12
35 | 663 | Clc1ccccc1-c1nc2ccccc2[nH]1
36 | 697 | O=C(Nc1ccccc1)N1CCC(N(C(=O)C2CC2)C2CCOCC2)CC1
37 | 718 | O=C(CN1CCN(C(=O)Nc2ccc(Br)cc2)CC1=O)NCc1ccco1
38 | 1150 | COc1ccccc1NS(=O)(=O)c1c(C)nn(-c2ccc(-c3ccc(C)cc3)nn2)c1C
39 | 833 | CCc1noc([C@@H]2CC(F)(F)CN2C(=O)c2ccoc2C)n1
40 | 744 | CC(CCc1ccccc1)NC(=O)Cc1nnc(-c2ccccn2)o1 (stereo unspecified)
41 | 547 | Cn1nc(C(=O)N2CCN(c3cc(-c4ccccc4)ncn3)CC2)ccc1=O
42 | 886 | O=C(NCCc1c[nH]c2ccc(Cl)cc12)c1cn2cc(Cl)ccc2n1
43 | 576 | Cn1c(=O)c2c(ncn2CC(=O)Nc2nccs2)n(C)c1=O
44 | 960 | CCc1nc2c(NC(=O)CC3CCCCC3)cccn2n1
45 | 704 | O=C(Cc1ccsc1)NCc1cccnc1Oc1ccccc1
46 | 719 | COc1ccc(-c2nc3cnccn3c2NCc2ccccc2)cc1

Row | RP-LC retention time [s] | Structure (SMILES)
47 | 597 | CCNC(=O)NCC1CCN(C(=O)NC(C)(C)C)CC1
48 | 607 | Cc1nc2cccnc2n1CCN1CCN(C(=O)Nc2cccc(Br)c2)CC1
49 | 729 | CCn1cc(CCNC(=O)c2cc(F)ccc2Cl)c2cccnc21
50 | 1050 | O=C(c1ccc(Cl)cc1)N1CCCCC(Sc2ncnc3sccc23)C1=O (stereo unspecified)
51 | 851 | COCCc1noc(C2Cc3ccccc3N2C(=O)Nc2ccc(OC)c(OC)c2)n1 (stereo unspecified)
52 | 589 | CCCN1CCN(C(=O)Cn2ccc3ccc(-c4nnc(C)o4)cc32)CC1
53 | 1120 | Cc1ccc(Sc2nccnc2N2CCCC(C(=O)NCc3cc(F)cc(F)c3)C2)cc1 (stereo unspecified)
54 | 818 | CCCNS(=O)(=O)c1cc2c(cc1C)CCN2C(=O)CC
55 | 628 | O=C1NC(C(=O)NC2CCCC2)Cn2cccc21 (stereo unspecified)
56 | 840 | COc1cc(C)c2c(c1C=O)Oc1c(c(C)c(O)c3c1C(O)OC3=O)OC2=O (stereo unspecified)
57 | 896 | CSc1ccc(-c2nc3cc(C)ccn3c2NC2CCCCC2)cc1
58 | 1040 | CCCS(=O)(=O)c1nc2ccc(NS(=O)(=O)c3cc(C)c(C)cc3C)cc2s1
59 | 552 | COCC(=O)Nc1cc(=O)n(C)c(=O)n1C
60 | 827 | CCc1noc(NC(C)=O)c1-c1ccc(C)c(S(=O)(=O)Nc2c(Cl)cc(OC)cc2OC)c1
61 | 1020 | Cc1cc(C)cc(-n2ccnc(NC(=O)Nc3cccc(F)c3)c2=O)c1
62 | 722 | CCNS(=O)(=O)c1ccc(NC(=O)C2CCN(C(=O)C(C)(C)C)CC2)cc1
63 | 925 | Cc1ccc2c(c1)N(C(=O)c1ccc(C#N)cc1)CCO2
64 | 822 | CCOC(=O)c1c(C)[nH]c(C(=O)N2CCC(CC(=O)NCc3ccc(C)cc3)CC2)c1C
65 | 1150 | Cc1ccc(Cn2c(N3CCCC(C(=O)NCCC4=CCCCC4)C3)nc3ccsc3c2=O)cc1 (stereo unspecified)
66 | 945 | O=C(c1ccsc1)N1CCCn2nc(-c3ccc(Cl)cc3)cc2C1
67 | 830 | COc1ccc(-c2nc3cnccn3c2Nc2ccc(Cl)cc2)cc1OC
68 | 1150 | CCc1sc(NC(=O)Cc2ccc(C)cc2)nc1-c1ccccc1
69 | 772 | O=C(NCCC1=CCCCC1)C1CCN(c2cnc(N3CCOCC3)nc2)CC1

Row | RP-LC retention time [s] | Structure (SMILES)
70 | 1050 | COc1ccccc1NC(=O)CSc1cc(N2CCN(c3ccccc3OC)CC2)ncn1
71 | 796 | O=C(Cn1nc(S(=O)(=O)c2ccccc2)ccc1=O)Nc1ccc2c(c1)OCO2
72 | 721 | COc1ccc(OC)c(NC(=O)N2CCN(Cc3nc4cc(C)ccc4o3)CC2)c1
73 | 1090 | Cn1c(=O)oc2cc(-c3noc(-c4cc(F)ccc4Cl)n3)ccc21
74 | 574 | CCn1ccc2sc(C)c(C(=O)N3CCN(CC(C)C)CC3)c2c1=O
75 | 902 | CCCN(CC1CCOC1)C(=O)Nc1ccc(C)cc1Cl (stereo unspecified)
76 | 1060 | CC(C)c1ccc(N2C(=O)C3N=NN(Cc4nc(-c5ccc6c(c5)OCO6)no4)C3C2=O)cc1 (stereo unspecified)
77 | 832 | COc1cccc(OC)c1C(=O)Nc1nnc(SCc2nnc(-c3ccccc3)o2)s1
78 | 1020 | O=C(NC1CCCC1)C1CCCN(c2nccnc2Sc2ccccc2)C1 (stereo unspecified)
79 | 873 | O=C(CCCn1nnc2cc(S(=O)(=O)N3CCCC3)ccc21)N1CCCc2ccccc21
80 | 1010 | CCOc1ccc(CCNC(=O)C2CCCN(S(=O)(=O)N3CCC(C)CC3)C2)cc1 (stereo unspecified)
81 | 1020 | CCn1c(=O)oc2cc(-c3noc(COc4ccccc4)n3)ccc21
82 | 1020 | Cn1c(=O)n(CC(=O)Nc2ccccc2Cl)c(=O)c2cnc(-c3ccccc3)nc21
83 | 867 | CCOC(=O)CNC(=O)N1CCN(c2nc3ccccc3n(Cc3ccccc3)c2=O)CC1
84 | 685 | COc1cc(NC(=O)N2CCC3(CC2)NC(=O)c2ccccc2O3)cc(OC)c1OC
85 | 592 | O=C(NC1CC1)C1CCCN(c2cnc3nccnc3c2)C1 (stereo unspecified)
86 | 732 | CCc1ccc(NC(=O)NCC2CCOCC2)cc1
87 | 660 | COc1cccc(C(O)CN2CCN(c3ccc(F)cc3)CC2)c1 (stereo unspecified)
88 | 1120 | O=C(NC1CCCCCCC1)C1CCN(S(=O)(=O)c2ccc(-c3noc(C4CC4)n3)cc2)CC1
89 | 740 | O=C1N(CCNS(=O)(=O)c2cnc[nH]2)C(c2ccccc2)C12CCCCC2 (stereo unspecified)
90 | 908 | CCCN(CC1CCOC1)C(=O)Nc1ccc(C(F)(F)F)cc1 (stereo unspecified)

Row | Structure (SMILES) | RP-LC retention time [s]
91 | CCC(COC(=O)c1cc(OC)c(OC)c(OC)c1)(c1ccccc1)N(C)C (stereo unspecified) | 752
